Like-named read-outs stand apart in the source and are kept apart here.
Tests used:
[1] = target: T1, human islet amyloid polypeptide (Homo sapiens, UniProt P10997); conditions: cited from earlier work
T1 sequence (P10997 34-70 limits assumed): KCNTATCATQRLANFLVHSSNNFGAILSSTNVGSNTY

tau = tau (Homo sapiens, UniProt P10636); experiment: Screening compounds for inhibition of RNA-facilitated tau oligomer formation (modified ELISA); assay type: biochemical; conditions: incubations with RQ11+12 RNA polyanion; FIG. 14
tau, sequence (P10636 1-412 isoform P10636-7): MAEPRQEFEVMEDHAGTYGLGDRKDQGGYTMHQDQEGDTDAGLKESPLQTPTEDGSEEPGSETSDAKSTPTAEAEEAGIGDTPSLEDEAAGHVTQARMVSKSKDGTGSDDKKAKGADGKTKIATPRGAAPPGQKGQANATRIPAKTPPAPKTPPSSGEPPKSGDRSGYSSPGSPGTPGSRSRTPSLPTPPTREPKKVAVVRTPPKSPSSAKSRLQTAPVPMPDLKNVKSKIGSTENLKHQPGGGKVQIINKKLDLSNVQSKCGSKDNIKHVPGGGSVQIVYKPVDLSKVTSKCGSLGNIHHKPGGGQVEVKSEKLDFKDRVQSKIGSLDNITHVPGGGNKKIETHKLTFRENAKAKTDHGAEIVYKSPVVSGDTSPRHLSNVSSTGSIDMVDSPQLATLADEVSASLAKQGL
Experimental: RNA polyanion was used to facilitate oligomer formation of tau protein in vitro using the following, preferred, conditions: 20 pmoles of tau412 was reacted with 4 pmoles of a 197 base RNA, i.e., RQ11+12, in 50 mM Tris-HCl buffer at pH of 7.4 and incubated for 1 hour at 37° C. […] The 5:1 ratio was optimal for the RNA RQT157 as well (FIG. 15). […] The kinetics of oligomer formation was rapid. […] Physiological pH and temperature were used in the assay to simulate biological conditions.
Formation of tau oligomers was analyzed using two different ELISA methods to provide verified data. The “modified” ELISA uses the same monoclonal antibody for capture and detection. Insoluble aggregates are removed in the ELISA procedure during washing steps. Only soluble aggregates of tau, not monomers, are detected with this ELISA because the detection and reporter antibody recognizes an epitope which is present only once within tau. At least one more tau molecule must be present in the complex for detection with the same antibody (method illustrated in FIG. 7). The modified ELISA used is similar to the modified ELISA previously used for identification of Aβ oligomers (Sian et al., Biochem. J. 349(Pt 1):299-308 2000)) and PrP oligomers (Vasan et al., Neurochem Res 31(5):629-37(2006)). […]

tau412 = tau412 (Homo sapiens, UniProt P10636); experiment: Polyanion-facilitated tau412 oligomer formation detected by ELISA (modified, A11, DC11); assay type: biochemical; conditions: for facilitation of tau412 oligomer formation by heparin or DNA: modified ELISA, FIGS. 13 and 16
tau412, sequence (P10636 1-412 isoform P10636-7): as above
Experimental: The 5:1 ratio was optimal for the RNA RQT157 as well (FIG. 15). […] The kinetics of oligomer formation was rapid. […] Physiological pH and temperature were used in the assay to simulate biological conditions. Formation of tau oligomers was analyzed using two different ELISA methods to provide verified data. The “modified” ELISA uses the same monoclonal antibody for capture and detection. Insoluble aggregates are removed in the ELISA procedure during washing steps. Only soluble aggregates of tau, not monomers, are detected with this ELISA because the detection and reporter antibody recognizes an epitope which is present only once within tau. At least one more tau molecule must be present in the complex for detection with the same antibody (method illustrated in FIG. 7). The modified ELISA used is similar to the modified ELISA previously used for identification of Aβ oligomers (Sian et al., Biochem. J. 349(Pt 1):299-308 2000)) and PrP oligomers (Vasan et al., Neurochem Res 31(5):629-37(2006)). This assay used antibody MN1000, recognizing tau epitope amino acids 159-163, for capture and biotinylated MN1000 as reporter. […] The second ELISA method to detect oligomers is based on polyclonal antibody A11 which recognizes a common structure in soluble amyloid oligomers (FIGS. 8-10, and 12). (Kayed et al., Science 300: 486-491(2003)). […] This assay was used to optimize the molar ratio of tau:RNA for oligomer formation (FIGS. 8 and 15), follow oligomer formation over time (FIG. 10), show tau oligomer formation with a range of RNAs (FIG. 12), and detect soluble tau oligomers in CSF (FIG. 11). A third ELISA was used to show biological relevance of the tau oligomers formed in this assay to tau in AD and is based on monoclonal antibodies DC11 used for capture and biotinylated MN1000 for reporter. The antibody DC11 recognizes a conformational epitope in tau specific for AD (Vechterova et al., Neuroreport 1:87-91 (2003)). […] Oligomer formation was determined by modified ELISA (described above). […]

## Cc1ccc(C(=O)Nc2ccc(S(=O)(=O)O)c3cc(S(=O)(=O)O)cc(S(=O)(=O)O)c23)cc1NC(=O)c1cccc(NC(=O)Nc2cccc(C(=O)Nc3cc(C(=O)Nc4ccc(S(=O)(=O)O)c5cc(S(=O)(=O)O)cc(S(=O)(=O)O)c45)ccc3C)c2)c1 [Suramin]
[1]; at high concentrations
  effect on amyloid fibril formation: stimulated the process
[1]; at low concentrations
  effect on amyloid fibril formation: inhibited amyloid fibril formation

## COc1cc(/C=C/C(=O)CC(=O)/C=C/c2ccc(O)c(OC)c2)ccc1O [curcumin]
tau
  inhibition of RNA-facilitated tau oligomer formation: inhibition

## Heparin
tau412
  facilitation of tau412 oligomer formation by heparin or DNA: effective in facilitating tau oligomer formation

## Polydeoxythymidine
tau412
  facilitation of tau412 oligomer formation by heparin or DNA: enhanced tau412 oligomer formation

## polyA
tau412; 5:1 tau:RNA ratio, detected with A11 Ab, FIG. 12
  facilitation of tau oligomer formation by RNA: facilitated tau oligomer formation

Reference: patent US20070218491A1, “Oligomerization of amyloid proteins” (Oligomerix, Inc., priority 2006, published 2007)
